Where “and” joins values, the source holds several entries; their conditions need not be identical. Identical values can stand only once.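 Tested at 5 concentrations; 48 h exposure; 96-well plates; endpoints linearly interpolated, else capped at highest concentration. GI50: concentration for 50% inhibition of growth. TGI: concentration producing complete growth inhibition.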
Assays:
Test in all cases: NCI-60 cell line screen, 48 h
HOP-92 NSCLC = system: HOP-92 NSCLC
SNB-75 CNS = system: SNB-75 CNS
HL-60(TB) leukemia = system: HL-60(TB) leukemia
M14 melanoma = system: M14 melanoma
NCI-H23 lung = system: NCI-H23 lung
MALME-3M melanoma = system: MALME-3M melanoma
A498 renal = system: A498 renal
UACC-257 melanoma = system: UACC-257 melanoma
UO-31 renal = system: UO-31 renal
SW-620 colon = system: SW-620 colon

SMILES | TGI (HOP-92 NSCLC) | TGI (SNB-75 CNS) | TGI (HL-60(TB) leukemia) | TGI (M14 melanoma) | TGI (NCI-H23 lung) | TGI (MALME-3M melanoma) | TGI (A498 renal) | TGI (UACC-257 melanoma) | TGI (UO-31 renal) | TGI (SW-620 colon) | GI50 (SNB-75 CNS) | GI50 (NCI-H23 lung) | GI50 (UACC-257 melanoma) | GI50 (UO-31 renal) | GI50 (HOP-92 NSCLC) | GI50 (HL-60(TB) leukemia) | GI50 (M14 melanoma) | GI50 (MALME-3M melanoma) | GI50 (A498 renal) | GI50 (SW-620 colon)
NC(=S)N/N=C/c1ccc(N)cn1 | > 10 µM | > 10 µM | 5.44 µM | > 7.38 µM | > 8.9 µM | > 10 µM | > 10 µM | > 10 µM | 6.97 µM | > 10 µM | – | – | – | – | – | – | – | – | – | –
CN1CC[C@]2(c3cccc(O)c3)CC(=O)/C(=C/c3ccccc3)[C@H]1C2 | 7.92 µM | 14.4 µM | 5.45 µM | 9.46 µM | 10.8 µM | 9.51 µM | 21.1 µM | 9.72 µM | 9.83 µM | 11.9 µM | 3.89 µM | 2.87 µM | 2.6 µM | 2 µM | – | – | – | – | – | –
Cc1cc2nc3ccc(=[N+](C)C)cc-3sc2cc1N | 10.1 µM and 38.3 µM and 11.1 µM | 4.03 µM and 24.5 µM and 3.37 µM | – | 1.38 µM and 9.09 µM and 2.28 µM | 2.78 µM and 9.3 µM and 2.51 µM | 1.8 µM and 6.42 µM and 0.782 µM | 14.2 µM and 47.2 µM and 12 µM | 3.78 µM and 5.85 µM and 10.1 µM | 9.11 µM and 25.1 µM and 10.8 µM | 1.24 µM and 9.68 µM and 3.05 µM | 1.43 µM and 1.34 µM | 0.388 µM and 0.381 µM | 0.501 µM and 1.95 µM | 1.73 µM and 1.61 µM | 1.44 µM and 1.76 µM | 0.214 µM and 0.181 µM | 0.368 µM and 0.703 µM | 0.384 µM and 0.223 µM | 1.33 µM and 1.93 µM | 0.289 µM and 1.13 µM
COc1cccc(NC(=O)C(C)(C)C)c1SSc1c(NC(=O)C(C)(C)C)cccc1OC | > 86 µM | > 74.4 µM | > 73.1 µM | 32.5 µM | > 100 µM | > 63.4 µM | > 100 µM | 51.4 µM | > 88.9 µM | 33.1 µM | – | – | – | – | – | – | – | – | – | –
N#CC1(Nc2ccc(-c3ccc(NC4(C#N)CCCC4)cc3)cc2)CCCC1 | > 100 µM | > 100 µM | > 100 µM | > 100 µM | > 100 µM | > 100 µM | > 100 µM | > 100 µM | > 100 µM | > 100 µM | – | – | – | – | – | – | – | – | – | –

Reference: PubChem BioAssay (NCI)
